Patent US20240358829A1, “Lymphocyte Population and Methods for Producing Same” (AVM Biotechnology, LLC, priority 2021, published 2024)

System: lymphocytes and myeloid cells
Experiment: Humanized mice experiments LYDEP 43 and 45, lymphoid versus myeloid cells (FSC vs SSC)
Assay type: in vivo, mouse
Description: Female huNOG-EXL mice (n=6) were obtained from Taconic Bioscience (Germantown, NY). Female huCD34-NCG mice (n=8) were obtained from Charles River (Wilmington, MA). Mice from both facilities were acclimated to laboratory conditions for at least 5-6 days.
After first (03/01/2021) and second dose 1 week later (03/08/2021), when mice reached predetermined time point, they were bled up to 70 μL of blood/mouse via cheek puncture. The blood was analyzed via flow cytometry. After third dose 28 days after the previous dose (on Apr. 5, 2021), when mice reached the study time point, they were euthanized under standard operating procedure summarized here: Mice were anesthetized with isoflurane gas.
All flow cytometry was performed in house. Blood, spleen, thymus, and bone marrow were processed via standard staining protocol for flow cytometry. MACSQUANT 16 was used for flow cytometry. Antibody panels slightly varied between first, second and third dose. Markers in the flow panel after first dose analysis included Live/Dead, hCD45, mCD45, hCD56, hTCRgd, hCD3, hCD8, hCD16, hCD19, hCD14. Markers in the flow panel after second dose included all the above, plus hTCRab and hiTCR. In the blood analysis after second dose, 7AAD, CD14 and CD19 were included together in a dump channel. […] For the third dose panel design, when full sac was performed, all markers mentioned above were assigned unique channels to avoid overlap, but TCRab was not included in the final panel due to open channel limitations.
For cheek bleeds, 70 ul of blood was collected in EDTA coated microtainer and proceeded for immunostaining. […] Blood was stained for live dead marker for 10 min at Room temperature and then for the surface antibodies mentioned above for 20 minutes at room temperature in dark. RBCs were lysed with BD FACS lysing buffer and washed with DPBS and resuspended in 300 ul DBPS. 250 ul of sample was run on MACSquant 16 flow cytometer.

[1] = mouse M88, after a first dose (32 mg/kg)

C[C@@H]1C[C@H]2[C@@H]3CCC4=CC(=O)C=C[C@]4(C)[C@@]3(F)[C@@H](O)C[C@]2(C)[C@@]1(O)C(=O)COP(=O)(O)O [AVM0703, dexamethasone sodium phosphate]
% of total mouse WBCs that were lymphoid cells, range (AVM0703 treated humanized mice): 2%-20.4%
% of total mouse WBCs that were lymphoid cells, average (AVM0703 treated humanized mice (Placebo 12.7%)): 10.62%
myeloid cell production (humanized mice that largely lack myeloid compartments): induced myeloid cell production
human lymphocytes, % of total human WBCs (mouse M01, after a first dose): 67%
mouse lymphocytes, % of total WBCs (mouse M01, after a first dose): 6.7%
total lymphocytes, % of total WBCs (mouse M01, after a first dose): 35%
human lymphocytes, % of total human WBCs (mouse M03, after a first dose): 47%
mouse lymphocytes, % of total WBCs (mouse M03, after a first dose): 23.7%
total lymphocytes, % of total WBCs (mouse M03, after a first dose): 40%
human lymphocytes, % of total human WBCs (mouse M05, after a first dose): 50.1%
mouse lymphocytes, % of total WBCs (mouse M05, after a first dose): 2.0%
total lymphocytes, % of total WBCs (mouse M05, after a first dose): 20.9%
human lymphocytes, % of total human WBCs (mouse M07, after a first dose): 58.2%
mouse lymphocytes, % of total WBCs (mouse M07, after a first dose): 20.4%
total lymphocytes, % of total WBCs (mouse M07, after a first dose): 41.9%
human lymphocytes, % of total human WBCs (mouse M10, after a first dose): 37.5%
mouse lymphocytes, % of total WBCs (mouse M10, after a first dose): 5.2%
total lymphocytes, % of total WBCs (mouse M10, after a first dose): 28.1%
human lymphocytes, % of total human WBCs [1]: 58%
mouse lymphocytes, % of total WBCs [1]: 5.7%
total lymphocytes, % of total WBCs [1]: 32%
